{
  "source": "paper PMC2747590",
  "about": "(Chemical biology & drug design, 2009)",
  "key": {"in vitro": {"assay": "in vitro", "settings": "male, Sprague-Dawley, rat, microsomes, pH 7.4"}, "metastasis": {"tested_on": "metastasis", "settings": "50 mg/kg/day; cited from earlier work"}, "[1]": {"settings": "mice, single intraperitoneal dose at the same dose level (100 mg/kg); cited from earlier work"}, "[2]": {"assay": "Plasma levels in mice after single intraperitoneal dose", "settings": "female, BALB/c, mouse, in vivo, ip, 100 mg/kg"}, "in vivo": {"assay": "in vivo", "settings": "female, BALB/c, mouse, ip"}, "[3]": {"assay": "14-day repeated dose toxicity study in mice", "settings": "5, 10 and 25 mg/kg/day i.p. for 14 days; normal behavior and food consumption"}, "[4]": {"settings": "mouse, in vivo, ip"}, "gelatinases": {"tested_on": "gelatinases", "settings": "cited from earlier work"}},
  "note": "Read-outs that look alike come from different tables or passages of the source.",
  "data": [
    {"smiles": "O=S(=O)(CC1CS1)c1ccc(Oc2ccccc2)cc1", "note": "(stereo not drawn) [Compound 1, (4-phenoxyphenylsulfonyl)methylthiirane]", "values": [
      {"measurement": "remaining at 0.25 h, 25 μM", "setting": "in vitro", "result": 0.5, "unit": "%"},
      {"measurement": "efficacy in mouse models of metastasis", "setting": "metastasis", "result": "has shown efficacy"},
      {"measurement": "plasma levels at 1 h", "setting": "[1]", "result": "< 1", "unit": "µM"}
    ]},
    {"smiles": "CS(=O)(=O)Oc1ccc(Oc2ccc(S(=O)(=O)CC3CS3)cc2)cc1", "note": "(stereo not drawn) [Compound 2, 4-(4-(Thiiranylmethylsulfonyl)phenoxy)-phenyl methanesulfonate]", "values": [
      {"measurement": "concentration at 1 h", "setting": "[2]", "result": 70.5, "unit": "µM"},
      {"measurement": "concentration at 1 h", "setting": "in vivo; 5 mg/kg/day", "result": "< 1", "unit": "µM"},
      {"measurement": "concentration at 1 h", "setting": "in vivo; 10 mg/kg/day", "result": "< 1", "unit": "µM"},
      {"measurement": "concentration at 1 h", "setting": "in vivo; 25 mg/kg/day", "result": 3.2, "unit": "µM"},
      {"measurement": "toxicity upon multiple-dose administration", "setting": "[3]", "result": "No toxicity was observed"},
      {"measurement": "Concentration of 2 at 1 h", "setting": "[4]; female, BALB/c, 25 mg/kg/day, 1 h", "result": 3.2, "unit": "µM"},
      {"measurement": "Concentration of 2 at 1 h", "setting": "[4]; 5 mg/kg/day", "result": "LOQ"},
      {"measurement": "Concentration of 2 at 1 h", "setting": "[4]; 10 mg/kg/day", "result": "LOQ"}
    ]},
    {"smiles": "O=S(=O)(CC1CS1)c1ccc(Oc2ccc(O)cc2)cc1", "note": "(stereo not drawn) [p-hydroxy variant]", "values": [
      {"measurement": "gelatinase inhibitory activity relative to parent 1", "setting": "gelatinases", "result": "more active gelatinase inhibitor than the parent 1"}
    ]}
  ]
}
